Test results: ChEMBL document CHEMBL4049391, “Vicinal diaryl azole-based urea derivatives as potential cholesterol lowering agents acting through inhibition of SOAT enzymes” (Eur J Med Chem, 2017)
Activity calls are given as the source filed them. The rule behind the calls is not given here.

Assays:
[1] = system: Rattus norvegicus; assay: Anti-atherosclerosis activity in high cholesterol diet-induced Wistar rat atherogenesis model assessed as reduction in lumenal lipid plaque formation in aortic roots at 10 to 30 mg/kg, po administered once daily measured after 4 weeks by Sudan red 4 staining based photographic method; format: functional, organism-based
[2] = Acute toxicity in Wistar rat assessed as mortality administered orally as single dose measured up to 14 days; conditions: in vivo, po, read-out: CD50
[3] = system: Rattus norvegicus; assay: Anti-atherosclerosis activity in high cholesterol diet-induced Wistar rat atherogenesis model assessed as effect on serum total cholesterol level at 30 mg/kg, po administered once daily measured after 4 weeks; format: functional
[4] = system: Rattus norvegicus; assay: Acute toxicity in Wistar rat assessed as hematological changes at 60 mg/kg, po administered as repeated dosing for 28 days; format: organism-based; conditions: in vivo, 672 h
[5] = system: Rattus norvegicus; assay: Acute toxicity in Wistar rat assessed as macroscopic lesions in lung at 2000 mg/kg, po administered as single dose measured up to 14 days; format: organism-based; conditions: in vivo, 336 h
[6] = Inhibition of rat microsomal SOAT assessed as reduction in cholesteryl oleate formation from oleoyl co-enzyme A pretreated for 15 mins followed by oleoyl co-enzyme A addition after 10 mins by HPTLC method
[7] = system: Rattus norvegicus; assay: Anti-atherosclerosis activity in high cholesterol diet-induced Wistar rat atherogenesis model assessed as atherogenic index at 30 mg/kg, po administered once daily measured after 4 weeks (reference value: 19.59 +/- 5.8); format: functional
[8] = system: Rattus norvegicus; assay: Acute toxicity in Wistar rat assessed as change in body weight at 60 mg/kg, po administered as repeated dosing for 28 days; format: organism-based; conditions: in vivo, 672 h
[9] = system: Rattus norvegicus; assay: Acute toxicity in Wistar rat assessed as effect on gastrointestinal tract at 2000 mg/kg, po administered as single dose measured up to 14 days; format: organism-based; conditions: in vivo, 336 h
[10] = system: Rattus norvegicus; assay: Acute toxicity in Wistar rat assessed as effect on breathing at 2000 mg/kg, po administered as single dose measured up to 14 days; format: organism-based; conditions: in vivo, 336 h
[11] = system: Rattus norvegicus; assay: Acute toxicity in Wistar rat assessed as shrinkage of adrenal gland at 2000 mg/kg, po administered as single dose measured up to 14 days; format: organism-based; conditions: in vivo, 336 h
[12] = system: Rattus norvegicus; assay: Acute toxicity in Wistar rat assessed as effect on normal behavior at 60 mg/kg, po administered as repeated dosing for 28 days; format: organism-based; conditions: in vivo, 672 h
[13] = system: Rattus norvegicus; assay: Anti-atherosclerosis activity in high cholesterol diet-induced Wistar rat atherogenesis model assessed as reduction in fatty streak formation in thoracic aorta at 30 mg/kg, po administered once daily measured after 4 weeks by Sudan red 4 staining based photographic method; format: functional, organism-based
[14] = system: Rattus norvegicus; assay: Acute toxicity in Wistar rat assessed as changes in adrenal gland size at 2000 mg/kg, po administered as single dose measured up to 14 days; format: organism-based; conditions: in vivo, 336 h
[15] = system: Rattus norvegicus; assay: Acute toxicity in Wistar rat assessed as change in grooming behavior at 2000 mg/kg, po administered as single dose measured at 6 hrs post dose; format: organism-based; conditions: in vivo
[16] = organism: Rattus norvegicus; assay: Inhibition of rat microsomal SOAT assessed as reduction in cholesteryl oleate formation from oleoyl co-enzyme A at 10 uM pretreated for 15 mins followed by oleoyl co-enzyme A addition measured after 10 mins by HPTLC method relative to control
[17] = system: Rattus norvegicus; assay: Anti-atherosclerosis activity in po dosed high cholesterol diet-induced Wistar rat atherogenesis model assessed as reduction in serum total cholesterol level administered once daily measured after 4 weeks; format: functional, organism-based
[18] = system: Rattus norvegicus; assay: Anti-atherosclerosis activity in po dosed high cholesterol diet-induced Wistar rat atherogenesis model assessed as increase in HDL-cholesterol level administered once daily measured after 4 weeks; format: functional, organism-based
[19] = system: Rattus norvegicus; assay: Acute toxicity in Wistar rat assessed as effect on locomotion at 2000 mg/kg, po administered as single dose measured up to 14 days; format: organism-based; conditions: in vivo, 336 h
[20] = system: Rattus norvegicus; assay: Toxicity in Wistar rat assessed as effect on body weight at 10 mg/kg, po administered once daily measured after 4 weeks (reference value: 290.3 +/- 8.1 g); format: organism-based; conditions: in vivo, 672 h
[21] = system: Rattus norvegicus; assay: Anti-atherosclerosis activity in high cholesterol diet-induced Wistar rat atherogenesis model assessed as lipid accumulation lesion area in thoracic aorta at 30 mg/kg, po administered once daily measured after 4 weeks by Sudan red 4 staining based photographic method relative to control; format: functional
[22] = system: Rattus norvegicus; assay: Acute toxicity in Wistar rat assessed as changes in eyes at 2000 mg/kg, po administered as single dose measured up to 14 days; format: organism-based; conditions: in vivo, 336 h
[23] = system: Rattus norvegicus; assay: Acute toxicity in Wistar rat assessed as macroscopic lesions in liver at 2000 mg/kg, po administered as single dose measured up to 14 days; format: organism-based; conditions: in vivo, 336 h
[24] = system: Rattus norvegicus; assay: Anti-atherosclerosis activity in high cholesterol diet-induced Wistar rat atherogenesis model assessed as atherogenic index at 10 mg/kg, po administered once daily measured after 4 weeks (reference value: 19.59 +/- 5.8); format: functional
[25] = system: Rattus norvegicus; assay: Anti-hypercholesterolemic activity in poloxamer-407-induced Wistar rat lipoprotein lipase inhibition model assessed as fold change in triglyceride level at 20 mg/kg administered as single dose via oral gavage pretreated for 4 hrs followed by poloxamer-407 induction measured over 24 hrs (reference value: 80); format: functional
[26] = system: Rattus norvegicus; assay: Acute toxicity in Wistar rat assessed as macroscopic lesions in kidney at 2000 mg/kg, po administered as single dose measured up to 14 days; format: organism-based; conditions: in vivo, 336 h
[27] = system: Rattus norvegicus; assay: Acute toxicity in Wistar rat assessed as macroscopic lesions in adrenal gland at 2000 mg/kg, po administered as single dose measured up to 14 days; format: organism-based; conditions: in vivo, 336 h
[28] = system: Rattus norvegicus; assay: Acute toxicity in Wistar rat assessed as effect on fur color at 2000 mg/kg, po administered as single dose measured up to 14 days; format: organism-based; conditions: in vivo, 336 h
[29] = system: Rattus norvegicus; assay: Toxicity in Wistar rat assessed as cutaneous toxicity at 10 to 30 mg/kg, po administered once daily measured after 4 weeks; format: organism-based; conditions: in vivo, 672 h
[30] = system: Rattus norvegicus; assay: Anti-atherosclerosis activity in high cholesterol diet-induced Wistar rat atherogenesis model assessed as reduction in triglyceride level at 10 to 30 mg/kg, po administered once daily measured after 4 weeks; format: functional, organism-based
[31] = system: Rattus norvegicus; assay: Acute toxicity in Wistar rat assessed as macroscopic lesions in brain at 2000 mg/kg, po administered as single dose measured up to 14 days; format: organism-based; conditions: in vivo, 336 h
[32] = system: Rattus norvegicus; assay: Acute toxicity in Wistar rat assessed as effect on food intake at 60 mg/kg, po administered as repeated dosing for 28 days; format: organism-based; conditions: in vivo, 672 h
[33] = system: Rattus norvegicus; assay: Acute toxicity in Wistar rat assessed as change in body weight at 2000 mg/kg, po administered as single dose measured at 6 hrs post dose; format: organism-based; conditions: in vivo
[34] = system: Rattus norvegicus; assay: Anti-atherosclerosis activity in high cholesterol diet-induced Wistar rat atherogenesis model assessed as reduction in fatty streak formation in thoracic aorta at 10 mg/kg, po administered once daily measured after 4 weeks by Sudan red 4 staining based photographic method; format: functional, organism-based
[35] = system: Rattus norvegicus; assay: Acute toxicity in Wistar rat assessed as changes in adrenal gland shape at 2000 mg/kg, po administered as single dose measured up to 14 days; format: organism-based; conditions: in vivo, 336 h
[36] = system: Rattus norvegicus; assay: Anti-atherosclerosis activity in high cholesterol diet-induced Wistar rat atherogenesis model assessed as reduction in VLDL-cholesterol level at 10 to 30 mg/kg, po administered once daily measured after 4 weeks; format: functional, organism-based
[37] = system: Rattus norvegicus; assay: Acute toxicity in Wistar rat assessed as macroscopic lesions in spleen at 2000 mg/kg, po administered as single dose measured up to 14 days; format: organism-based; conditions: in vivo, 336 h
[38] = system: Rattus norvegicus; assay: Acute toxicity in Wistar rat assessed as effect on urinary excretion at 60 mg/kg, po administered as repeated dosing for 28 days; format: organism-based; conditions: in vivo, 672 h

## CCCCNC(=O)Nc1ccc(-c2sc(C)nc2-c2ccc(C)cc2)cc1
[1]
  Activity: Active
[2]
  LD50 at 336 h: > 2000 mg/kg
[3]
  Activity: 138 mg/dL
[4]
  Activity: Non-Toxic
[5]
  Activity: Non-Toxic
[6]
  IC50: 2.43 µM
  pIC50: 5.614
[7]
  Activity_index: 1.82
[8]
  Activity: Non-Toxic
[9]
  Activity: Non-Toxic
[10]
  Activity: Non-Toxic
[11]
  Activity: Non-Toxic
[12]
  Activity: Non-Toxic
[13]
  Activity: Active
[14]
  Activity: Non-Toxic
[15]
  Activity: Non-Toxic
[16]
  inhibition: 64.9%
[17]
  Activity: Dose-dependent effect
[18]
  Activity: Dose-dependent effect
[19]
  Activity: Non-Toxic
[20]
  Activity: 294 g
[21]
  fold change (FC): 3
[22]
  Activity: Non-Toxic
[23]
  Activity: Non-Toxic
[24]
  Activity_index: 7.55
[25]
  fold change (FC): 20
[26]
  Activity: Non-Toxic
[27]
  Activity: Non-Toxic
[28]
  Activity: Non-Toxic
[29]
  Activity: Non-Toxic
[30]
  Activity: inactive
[31]
  Activity: Non-Toxic
[32]
  Activity: Non-Toxic
[33]
  Activity: Non-Toxic
[34]
  Activity: inactive
[35]
  Activity: Non-Toxic
[36]
  Activity: inactive
[37]
  Activity: Non-Toxic
[38]
  Activity: Non-Toxic
